From patent publication US20150065440A1 (Progen Pharmaceuticals Limited, priority 2007, published 2015)

Legend:
VEGF = target: T1, VEGF (Homo sapiens, UniProt P15692); test: Growth factor binding assay (SPR solution affinity), VEGF; settings: HBS-EP buffer, 25° C.
T1 sequence (P15692 207-395): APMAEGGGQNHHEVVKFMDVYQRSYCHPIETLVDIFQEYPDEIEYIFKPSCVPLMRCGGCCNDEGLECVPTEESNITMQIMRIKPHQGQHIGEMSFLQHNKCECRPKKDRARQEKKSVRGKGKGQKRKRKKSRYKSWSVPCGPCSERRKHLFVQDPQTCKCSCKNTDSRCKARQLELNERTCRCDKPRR
Outline: (§1)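 Kd measured by SPR solution affinity: fixed growth factor with varying ligand competing for heparin-coated sensorchip, 25 °C. Buffer HBS-EP pH 7.4 (150 mM NaCl) for FGF-1 and VEGF; FGF-2 with 0.3 M NaCl. Duplicate values averaged.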

FGF-1 = FGF-1 (Homo sapiens, UniProt P05230); test: Growth factor binding assay (SPR solution affinity), FGF-1; settings: SPR, HBS-EP buffer, 25° C.; read-out: Kd FGF-1
FGF-1, sequence (P05230 whole entry, species assumed): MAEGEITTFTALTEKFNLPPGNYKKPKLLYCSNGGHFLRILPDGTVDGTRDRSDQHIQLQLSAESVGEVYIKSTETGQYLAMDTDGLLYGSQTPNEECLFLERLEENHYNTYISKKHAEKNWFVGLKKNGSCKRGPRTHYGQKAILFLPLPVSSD

FGF-2 = FGF-2 (Homo sapiens, UniProt P09038); test: Growth factor binding assay (SPR solution affinity), FGF-2; settings: SPR, HBS-EP buffer containing 0.3 M NaCl, 25° C.; read-out: Kd FGF-2
FGF-2, sequence (P09038 143-288, species assumed): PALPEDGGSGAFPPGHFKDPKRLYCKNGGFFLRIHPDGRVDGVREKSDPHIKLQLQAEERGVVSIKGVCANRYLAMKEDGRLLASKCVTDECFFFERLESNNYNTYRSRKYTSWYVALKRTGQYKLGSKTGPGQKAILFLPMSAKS
Outline: as §1

HUVECs = test: Matrigel microtubule formation assay; type: cell-based, human; settings: 10 μM, relative to controls
Description: (§2) Medium for the proliferation studies was prepared using EGM with 2% FBS and gentamicin only. In a later study, complete EGM was used for the VEGF groups in an attempt to enhance the proliferative index of VEGF-stimulated groups. For the tube formation assay, complete medium was used with only heparin omitted. Compounds under investigation were weighed out from powder stocks and diluted in PBS to 10 mM stock solutions and stored at −80° C. For experiments, compounds were subsequently diluted in EBM-2 medium (supplemented with 2% FBS and gentamicin) to various working concentration as required.
The tube formation assay was performed essentially as described by Malinda et al., with modifications.^41 HUVECs in the fourth or fifth passage at 70-80% confluence were harvested and resuspended in Lonza endothelial growth medium (EGM2) containing all supplements as directed by manufacturer, except heparin, at a cell density of 4×10^5 cells per mL. For each set of triplicate wells, 200 μL of cells (4×10^5/mL) were treated with an equal volume of compound to obtain final concentrations of 10, 50 or 100 μM (thus ensuring 1×300 μL are available for each condition). A 100 μL aliquot of cells was then plated onto 96-well plates pre-coated with growth factor reduced Matrigel™ (50 μL for 30 min followed by a further 30 μL for 1 h) and incubated for 18-22 h. Tube formation was examined by phase-contrast microscopy and images were collected using an Olympus C5050 digital camera. Tube formation inhibition was quantitated manually from images by recording the total number of nodes connecting 3 or more tubules. Untreated HUVECs were used as a control for normal cell growth and tube formation in Matrigel.

rat aortic tissue = test: Ex vivo angiogenic sprout assay (rat aortic angiogenesis assay); type: cell-based, Sprague Dawley rats
Description: Explants from rat aortas were prepared by a modification of protocols previously described^42-54. In this model, the rat aortic endothelium exposed to a three dimensional matrix of ECM-derived proteins (Matrigel™), switches to a microvascular phenotype, generating branching networks of microvessels.
Briefly, thoracic aortas were excised from 2- to 4-month old Sprague Dawley rats and trimmed of remaining fat and connective tissue. Great care was taken at every stage to reduce physical damage of the aorta. Tissue was transferred to complete EBM-2 media (Cambrex) containing 2% FCS and all Singlequots™ (Cambrex) reagents except for heparin. Meanwhile, Matrigel™ (BD Biosciences) was allowed to cool on ice and once in a liquid form, 180 μL was pipetted into 48-well tissue culture plates (Nunc). The plates were incubated at 37° C. for 30 min to allow Matrigel™ to solidify.
Aortas were prepared by cutting 1 mm ring sections and then being bisected. Aortic segments were then carefully placed on top on the Matrigel™ in the centre of each well and once orientated as required, 60 μL of extra Matrigel™ was placed on top and the plate was returned to the incubator for a further 20 min. Each well was then supplemented with 1.0 mL media in the absence (control) or presence of test compounds usually at two concentrations within the range of 1-50 μM, depending on the particular compound/experiment. Cultures were replenished as appropriate every 48 h and scoring of microvessels was carried out at various timepoints up to 8-10 days. The extent of microvessel sprouting was determined by employing a scoring system from 0-5, where 0=no microvessels to 5=diffuse angiogenesis as previously described^45. Sprouting vessels were photographed using the 4× objective with an Olympus C-7070 camera and an adaptor for the eyepiece.
In some instances, to determine the potential toxicity of compounds in this assay, the viability of the tissue was assessed by withdrawing the compound/media from the culture on day 6 or 7 and adding complete media with VEGF (typically 10 ng/mL) for up to an additional 7 days. In the absence of toxicity, the viable tissue should sprout microvessels in response to the exogenous growth factor.
The inhibitory effect of compounds of the present invention on angiogenesis was assayed using the angiogenic sprout/microvessel formation (rat aortic) assay described above. Embedding of the rat aortic tissue in Matrigel™ in the absence of any inhibitor (control) yielded extensive angiogenic sprouting (as a score of 5 indicates diffuse angiogenesis) as illustrated by FIG. 1.

[1] = tested on: pooled normal human plasma; test: Anticoagulant activity, APTT; settings: 0.1 mg/mL in normal pooled human plasma
Description: APTT measurements were performed on a STAGO STA-Compact Coagulation Analyser using standard protocols according to the manufacturer's instructions. Unfractionated heparin (UFH) was used as a control.

[2] = tested on: normal pooled human plasma; test: Anticoagulant activity, Heptest; settings: 0.1 mg/mL in normal pooled human plasma
[3] = target: T2, recombinant human heparanase (Homo sapiens, UniProt Q9Y251); test: Heparanase inhibition assay (fondaparinux cleavage, WST-1); settings: read-out: Ki Heparanase; IC50 converted into Ki; fondaparinux 100 μM, pH 5.0
T2 sequence (Q9Y251 158-543 limits assumed): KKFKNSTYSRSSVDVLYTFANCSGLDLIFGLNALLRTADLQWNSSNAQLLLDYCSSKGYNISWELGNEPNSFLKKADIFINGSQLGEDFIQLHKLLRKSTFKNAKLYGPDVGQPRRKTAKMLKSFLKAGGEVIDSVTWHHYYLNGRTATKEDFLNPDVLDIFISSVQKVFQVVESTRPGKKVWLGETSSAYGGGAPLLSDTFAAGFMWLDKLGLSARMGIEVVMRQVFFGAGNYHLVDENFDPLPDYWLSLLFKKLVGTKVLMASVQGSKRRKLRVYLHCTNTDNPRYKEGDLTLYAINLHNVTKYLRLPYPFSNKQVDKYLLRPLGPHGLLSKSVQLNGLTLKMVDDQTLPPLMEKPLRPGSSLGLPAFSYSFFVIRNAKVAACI
T2 sequence (Q9Y251 36-109 limits assumed): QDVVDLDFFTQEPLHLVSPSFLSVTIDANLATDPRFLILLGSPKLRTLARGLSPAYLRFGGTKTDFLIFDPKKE

[4] = tested on: HUVEC proliferation induced by FGF-1; test: Growth factor induced endothelial cell proliferation assay, FGF-1; type: cell-based, human; settings: 72 h; read-out: FGF-1 (IC50) inhibition of HUVEC proliferation
Description: (§3) HUVEC cells were maintained and subcultured according to standard cell culture protocols essentially as described by Lonza. Briefly, cells were maintained in Lonza endothelial growth media (EGM) with recommended supplements and growth factors (VEGF, FGF2, EFG, IGF, hydrocortisone, fetal bovine serum (FBS), ascorbic acid, heparin and gentamicin). Cells were subcultured when they reached 70-80% confluence by trypsinisation and reseeding in fresh growth medium in new culture vessels at 2500 to 5000 cells/cm^2 of vessel surface area. Cell counts were performed using a haemocytometer and viable cells were visualized with trypan blue.
as §2
(§4) In the first of a series of experiments, the assay was further optimized by examining the cell density and growth factor concentration required to induce maximal proliferation by growth factors. Briefly, 100 μL of cells was added to each well at concentrations between 1-3×10^3 per well. Growth factors and test compounds were then added in 50 μL volumes at specified concentrations to obtain a final volume of 200 μL. Following incubation for 70 h, 20 μL of the CellTitre 96® Aqueous One Solution Cell Proliferation Assay (Promega) was added for 2 h prior to reading the absorbance at 490 nm to obtain OD values.

[5] = tested on: HUVEC proliferation induced by FGF-2; test: Growth factor induced endothelial cell proliferation assay, FGF-2; type: cell-based, human; settings: 72 h; read-out: FGF-2 (IC50) inhibition of HUVEC proliferation
Description: as §3, §2, §4

[6] = tested on: HUVEC proliferation induced by VEGF; test: Growth factor induced endothelial cell proliferation assay, VEGF; type: cell-based, human; settings: 72 h; read-out: VEGF (IC50) inhibition of HUVEC proliferation
Description: as §3, §2, §4

Compound	Kd (VEGF)	Kd (FGF-1)	Kd (FGF-2)	inhibition at 10 µM (HUVECs; Homo sapiens, HUVEC, read-out: Microtubule Formation % inhibition at 10 μM)	inhibition at 10 µM (rat aortic tissue; Rattus norvegicus)	APTT [1]	Heptest [2]	Ki [3]	IC50 [4]	IC50 [5]	IC50 [6]	Microtubule Formation % inhibition at 10 μM (HUVECs)	% Inhibition of Angiogenesis (10 μM) (rat aortic tissue; 10 μM)
CCCCCCCCCCCCCCCCCC(=O)NCCCO[C@@H]1O[C@H](COS(=O)(=O)[O-])[C@@H](O[C@H]2O[C@H](COS(=O)(=O)[O-])[C@@H](O[C@H]3O[C@H](COS(=O)(=O)[O-])[C@@H](OS(=O)(=O)[O-])[C@H](OS(=O)(=O)[O-])[C@H]3OS(=O)(=O)[O-])[C@H](OS(=O)(=O)[O-])[C@H]2OS(=O)(=O)[O-])[C@H](OS(=O)(=O)[O-])[C@H]1OS(=O)(=O)[O-].[Na+].[Na+].[Na+].[Na+].[Na+].[Na+].[Na+].[Na+].[Na+].[Na+] [Compound 123, 3-Stearamidopropyl 2,3,4,6-tetra-O-sulfo-α-D-glucopyranosyl-(1→4)-2,3,6-tri-O-sulfo-α-D-glucopyranosyl-(1→4)-2,3,6-tri-O-sulfo-β-D-glucopyranoside, decasodium salt]	380 ± 110 nM	32.2 ± 2.3 nM	530 ± 50 nM	33%	23%	51.1 s	24.9 s	11.3 ± 0.4 nM					
CC(C)CCC[C@@H](C)[C@H]1CC[C@H]2[C@@H]3CCC4CC(OCCCNC(=S)N[C@@H]5O[C@H](COS(=O)(=O)[O-])[C@@H](O[C@H]6O[C@H](COS(=O)(=O)[O-])[C@@H](O[C@H]7O[C@H](COS(=O)(=O)[O-])[C@@H](OS(=O)(=O)[O-])[C@H](OS(=O)(=O)[O-])[C@H]7OS(=O)(=O)[O-])[C@H](OS(=O)(=O)[O-])[C@H]6OS(=O)(=O)[O-])[C@H](OS(=O)(=O)[O-])[C@H]5OS(=O)(=O)[O-])CC[C@]4(C)[C@H]3CC[C@]12C.[Na+].[Na+].[Na+].[Na+].[Na+].[Na+].[Na+].[Na+].[Na+].[Na+] (stereo partly drawn) [Compound 139, 1-[(Cholestan-3-yloxy)propyl]-3-[2,3,4,6-tetra-O-sulfo-α-D-glucopyranosyl-(1→4)-2,3,6-tri-O-sulfo-α-D-glucopyranosyl-(1→4)-2,3,6-tri-O-sulfo-β-D-glucopyranoside]thiourea, decasodium salt]	379 ± 13 nM	72 ± 12 nM	880 ± 110 nM						2160 nM	1500 nM	2310 nM	36%	92%
